{"source": "ChEMBL document CHEMBL4251679", "about": "(J Nat Prod, 2018)", "key": {"[1]": {"test": "Substrate activity at P-gp in human SKVLB1 cells assessed as inhibition of cell growth after 72 to 120 hrs in presence of verapamil by sulforhodamine B assay", "assay_type": "cell-based"}, "SK-OV-3 [2]": {"tested_on": "SK-OV-3", "test": "Effect on [3H]vinblastine accumulation in human SKOV3 cells at 40 uM after 1 hr by liquid scintillation counting method", "assay_type": "functional, cell-based"}, "[3]": {"test": "Cytotoxicity against vinblastine-resistant human SKVLB1 cells after 72 to 120 hrs by sulforhodamine B assay", "assay_type": "functional, cell-based"}, "[4]": {"molecular_target": "Tubulin beta-4 chain (Gallus gallus) (UniProt P09652)", "sequence (P09652 whole entry)": "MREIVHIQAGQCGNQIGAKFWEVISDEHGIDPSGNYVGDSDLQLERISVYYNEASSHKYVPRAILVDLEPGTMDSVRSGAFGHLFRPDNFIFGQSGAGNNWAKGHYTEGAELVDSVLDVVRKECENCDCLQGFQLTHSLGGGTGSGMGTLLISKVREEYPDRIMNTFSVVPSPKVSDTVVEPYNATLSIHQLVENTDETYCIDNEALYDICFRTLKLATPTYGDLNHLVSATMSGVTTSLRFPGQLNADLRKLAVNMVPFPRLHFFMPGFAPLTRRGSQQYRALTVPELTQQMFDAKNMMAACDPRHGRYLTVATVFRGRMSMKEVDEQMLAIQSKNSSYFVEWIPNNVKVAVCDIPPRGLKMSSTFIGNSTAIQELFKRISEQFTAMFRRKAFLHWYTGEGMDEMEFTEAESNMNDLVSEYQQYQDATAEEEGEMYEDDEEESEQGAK", "test": "Inhibition of [3H]2-m-AzTax binding to chicken erythrocyte beta-tubulin 4 at 20 uM treated for 30 mins followed by UV irradiation for 10 mins by fluorographic method relative to control"}, "SK-OV-3 [5]": {"tested_on": "SK-OV-3", "test": "Cytotoxicity against human SKOV3 cells after 72 to 120 hrs in presence of verapamil by sulforhodamine B assay", "assay_type": "functional, cell-based"}, "SK-OV-3 [6]": {"tested_on": "SK-OV-3", "test": "Cytotoxicity against human SKOV3 cells after 72 to 120 hrs by sulforhodamine B assay", "assay_type": "functional, cell-based"}, "Homo sapiens [7]": {"species": "Homo sapiens", "test": "Inhibition of [3H]2-m-AzTax binding to P-gp in human SKVLB1 cell plasma membranes at 40 uM treated for 30 mins followed by UV irradiation for 10 mins by fluorographic method relative to control"}, "[8]": {"test": "Cytotoxicity against human Hey/EpoB8 cells after 72 to 120 hrs by sulforhodamine B assay", "assay_type": "functional, cell-based"}, "Homo sapiens [9]": {"species": "Homo sapiens", "test": "Binding affinity to P-gp in human SKVLB1 cells assessed as increase in [3H]vinblastine accumulation at 40 uM after 1 hr by liquid scintillation counting method", "assay_type": "cell-based"}, "[10]": {"test": "Cytotoxicity against human Hey/Ixab80 cells after 72 to 120 hrs by sulforhodamine B assay", "assay_type": "functional, cell-based"}, "[11]": {"test": "Cytotoxicity against human Hey/Tx100 cells after 72 to 120 hrs by sulforhodamine B assay", "assay_type": "functional, cell-based"}, "HEY": {"tested_on": "HEY", "test": "Cytotoxicity against human HEY cells after 72 to 120 hrs by sulforhodamine B assay", "assay_type": "functional, cell-based"}, "[12]": {"test": "Substrate activity at P-gp in human SKVLB1 cells assessed as inhibition of cell growth after 72 to 120 hrs by sulforhodamine B assay", "assay_type": "cell-based"}, "Homo sapiens [13]": {"species": "Homo sapiens", "test": "Inhibition of [3H]2-m-AzTax binding to P-gp in human SKVLB1 cell plasma membranes assessed as residual [3H]2-m-AzTax binding at 40 uM treated for 30 mins followed by UV irradiation measured after 10 mins by fluorographic method relative to control"}, "Bos taurus": {"species": "Bos taurus", "test": "Inhibition of [3H]2-m-AzTax binding to bovine brain beta-tubulin at 20 uM treated for 30 mins followed by UV irradiation for 10 mins by fluorographic method relative to control"}, "[14]": {"test": "Resistance index, ratio of IC50 for human HEY/EpoB8 cells to IC50 for human HEY cells", "assay_type": "functional"}, "[15]": {"test": "Resistance index, ratio of IC50 for vinblastine-resistant human SKVLB1 cells to IC50 for human SKOV3 cells", "assay_type": "functional"}, "[16]": {"test": "Resistance index, ratio of IC50 for human HEY/Ixab80 cells to IC50 for human HEY cells", "assay_type": "functional"}, "[17]": {"test": "Resistance index, ratio of IC50 for human HEY/Tx100 cells to IC50 for human HEY cells", "assay_type": "functional"}, "P-gp [18]": {"tested_on": "P-gp", "test": "Resistance index, ratio of IC50 for substrate activity at P-gp in human SKVLB1 cells assessed as inhibition of cell growth in presence of verapamil to IC50 for human SKOV3 cells in presence of verapamil", "assay_type": "toxicity, cell-based", "settings": "SKVLB1 cells (P-gp) versus SKOV3 cells, with verapamil (concentration not stated), read-out: Ratio IC50"}, "[19]": {"test": "Ratio of fold resistance for substrate activity at P-gp in human SKVLB1 cells relative to sensitive human SKOV3 cells in absence of verapamil to fold resistance for substrate activity at P-gp in human SKVLB1 cells relative to sensitive human SKOV3 cells in presence of verapamil", "assay_type": "toxicity, cell-based"}, "P-gp [20]": {"tested_on": "P-gp", "test": "Resistance index, ratio of IC50 for substrate activity at P-gp in human SKVLB1 cells assessed as inhibition of cell growth to IC50 for human SKOV3 cells", "assay_type": "toxicity, cell-based", "settings": "SKVLB1 cells (P-gp) versus SKOV3 cells, read-out: Ratio IC50"}}, "note": "Active and inactive are the calls of the source. The rule behind the calls is not given here."}
{"smiles": "CC(=O)O[C@@]12CO[C@@H]1C[C@H](O)[C@@]1(C)C(=O)[C@H](OC(=O)C3CC3)C3=C(C)[C@@H](OC(=O)[C@H](O)[C@H](C=C(C)C)NC(=O)OC(C)(C)C)C[C@@](O)([C@@H](OC(=O)c4ccccc4)[C@H]21)C3(C)C", "values": [{"measurement": "IC50", "setting": "[1]", "value": 46.5, "unit": "nM"}, {"measurement": "Activity", "setting": "SK-OV-3 [2]", "value": "inactive"}, {"measurement": "IC50", "setting": "[3]", "value": 75.6, "unit": "nM"}, {"measurement": "inhibition", "setting": "[4]", "value": 30, "unit": "%"}, {"measurement": "IC50", "setting": "SK-OV-3 [5]", "value": 1.44, "unit": "nM"}, {"measurement": "IC50", "setting": "SK-OV-3 [6]", "value": "0.62 to 1.46", "unit": "nM"}, {"measurement": "inhibition", "setting": "Homo sapiens [7]", "value": 89, "unit": "%"}, {"measurement": "IC50", "setting": "[8]", "value": 8000, "unit": "nM"}, {"measurement": "Activity", "setting": "Homo sapiens [9]", "value": "Active"}, {"measurement": "IC50", "setting": "[10]", "value": 1600, "unit": "nM"}, {"measurement": "IC50", "setting": "[11]", "value": 2300, "unit": "nM"}, {"measurement": "IC50", "setting": "HEY", "value": 580, "unit": "nM"}, {"measurement": "IC50", "setting": "[12]", "value": 182, "unit": "nM"}, {"measurement": "Activity", "setting": "Homo sapiens [13]", "value": 11, "unit": "%"}, {"measurement": "inhibition", "setting": "Bos taurus", "value": 38, "unit": "%"}]}
{"smiles": "CC(=O)O[C@@]1(C2/C(C)=C(/O)C(=O)C3=C(C)[C@@H](OC(=O)[C@H](O)[C@H](C=C(C)C)NC(=O)OC(C)(C)C)C[C@@](O)([C@H]2OC(=O)c2cccc(Cl)c2)C3(C)C)CO[C@H]1CCO", "note": "(stereo partly drawn)", "values": [{"measurement": "Activity", "setting": "SK-OV-3 [2]", "value": "inactive"}, {"measurement": "IC50", "setting": "[3]", "value": 1580, "unit": "nM"}, {"measurement": "inhibition", "setting": "[4]", "value": 6, "unit": "%"}, {"measurement": "Ratio IC50", "setting": "[14]", "value": 17}, {"measurement": "IC50", "setting": "SK-OV-3 [6]", "value": 1.15, "unit": "nM"}, {"measurement": "inhibition", "setting": "Homo sapiens [7]", "value": "> 80", "unit": "%"}, {"measurement": "IC50", "setting": "[8]", "value": 13900, "unit": "nM"}, {"measurement": "Activity", "setting": "Homo sapiens [9]", "value": "Active"}, {"measurement": "IC50", "setting": "[10]", "value": 13000, "unit": "nM"}, {"measurement": "IC50", "setting": "[11]", "value": 28800, "unit": "nM"}, {"measurement": "IC50", "setting": "HEY", "value": 820, "unit": "nM"}, {"measurement": "Ratio IC50", "setting": "[15]", "value": 1376}, {"measurement": "Ratio IC50", "setting": "[16]", "value": 16}, {"measurement": "Ratio IC50", "setting": "[17]", "value": 35}, {"measurement": "Activity", "setting": "Homo sapiens [13]", "value": 14, "unit": "%"}, {"measurement": "inhibition", "setting": "Bos taurus", "value": 32, "unit": "%"}]}
{"smiles": "CC(=O)O[C@H]1C(=O)[C@@]2(C)[C@H]([C@H](OC(=O)c3cccc(N=[N+]=[N-])c3)[C@]3(O)C[C@H](OC(=O)[C@H](O)[C@@H](NC(=O)c4ccccc4)c4ccccc4)C(C)=C1C3(C)C)[C@]1(OC(C)=O)CO[C@@H]1C[C@@H]2O", "values": [{"measurement": "Activity", "setting": "Homo sapiens [13]", "value": 16, "unit": "%"}]}
{"smiles": "CC(=O)O[C@@]12CO[C@@H]1C[C@H](O)[C@@]1(C)C(=O)[C@H](O)C3=C(C)[C@@H](OC(=O)[C@H](O)[C@@H](NC(=O)OC(C)(C)C)c4ccccc4)C[C@@](O)([C@@H](OC(=O)c4ccccc4)[C@H]21)C3(C)C", "note": "[DOCETAXEL ANHYDROUS]", "values": [{"measurement": "IC50", "setting": "[3]", "value": 3530, "unit": "nM"}, {"measurement": "inhibition", "setting": "[4]", "value": 98, "unit": "%"}, {"measurement": "Ratio IC50", "setting": "[14]", "value": 10}, {"measurement": "IC50", "setting": "SK-OV-3 [6]", "value": 0.75, "unit": "nM"}, {"measurement": "inhibition", "setting": "Homo sapiens [7]", "value": 55, "unit": "%"}, {"measurement": "IC50", "setting": "[8]", "value": 8400, "unit": "nM"}, {"measurement": "Activity", "setting": "Homo sapiens [9]", "value": "Active"}, {"measurement": "IC50", "setting": "[10]", "value": 16200, "unit": "nM"}, {"measurement": "IC50", "setting": "[11]", "value": 41400, "unit": "nM"}, {"measurement": "IC50", "setting": "HEY", "value": 860, "unit": "nM"}, {"measurement": "Ratio IC50", "setting": "[15]", "value": 4704}, {"measurement": "Ratio IC50", "setting": "[16]", "value": 19}, {"measurement": "Ratio IC50", "setting": "[17]", "value": 48}, {"measurement": "Activity", "setting": "Homo sapiens [13]", "value": 45, "unit": "%"}, {"measurement": "inhibition", "setting": "Bos taurus", "value": 33, "unit": "%"}]}
{"smiles": "CC(=O)O[C@H]1C(=O)[C@@]2(C)[C@H]([C@H](OC(=O)c3ccccc3)[C@]3(O)C[C@H](OC(=O)[C@H](O)[C@@H](NC(=O)c4ccccc4)c4ccccc4)C(C)=C1C3(C)C)[C@]1(OC(C)=O)CO[C@@H]1C[C@@H]2O", "note": "[PACLITAXEL]", "values": [{"measurement": "IC50", "setting": "[1]", "value": 3730, "unit": "nM"}, {"measurement": "IC50", "setting": "[3]", "value": 12600, "unit": "nM"}, {"measurement": "selectivity ratio", "setting": "P-gp [18]", "value": 936}, {"measurement": "inhibition", "setting": "[4]", "value": 98, "unit": "%"}, {"measurement": "IC50", "setting": "SK-OV-3 [5]", "value": 3.99, "unit": "nM"}, {"measurement": "Ratio IC50", "setting": "[14]", "value": 8}, {"measurement": "IC50", "setting": "SK-OV-3 [6]", "value": "2.39 to 3.85", "unit": "nM"}, {"measurement": "inhibition", "setting": "Homo sapiens [7]", "value": "Active"}, {"measurement": "IC50", "setting": "[8]", "value": 22200, "unit": "nM"}, {"measurement": "Activity", "setting": "Homo sapiens [9]", "value": "Active"}, {"measurement": "IC50", "setting": "[10]", "value": 152000, "unit": "nM"}, {"measurement": "IC50", "setting": "[11]", "value": 240000, "unit": "nM"}, {"measurement": "IC50", "setting": "HEY", "value": 2700, "unit": "nM"}, {"measurement": "Ratio IC50", "setting": "[15]", "value": 5416}, {"measurement": "Ratio IC50", "setting": "[16]", "value": 56}, {"measurement": "Ratio IC50", "setting": "[17]", "value": 89}, {"measurement": "IC50", "setting": "[12]", "value": 21200, "unit": "nM"}, {"measurement": "Ratio", "setting": "[19]", "value": 5.9}, {"measurement": "selectivity ratio", "setting": "P-gp [20]", "value": 5520}, {"measurement": "Activity", "setting": "Homo sapiens [13]", "value": 18, "unit": "%"}, {"measurement": "inhibition", "setting": "Bos taurus", "value": 9, "unit": "%"}]}
